For 16 compounds, IC50 and Ki results are on record in ChEMBL document CHEMBL1909046, “DrugMatrix in vitro pharmacology data”.

For assay [1], the target named is 5-hydroxytryptamine receptor 2B (Homo sapiens, UniProt P41595). It is filed as cell membranes, CHO-K1, Membrane. The following applies: for Ki: read-out: Ki. For all read-outs here: in other assays of this panel Not Active means under 50% inhibition at 10 µM.
A short description of assay [2]: DRUGMATRIX: Calcium Channel Type L, Phenylalkylamine radioligand binding (ligand: [3H] (-)-Desmethoxyverapamil (D-888)). It counts as cell membranes, Rattus norvegicus, Wistar, Brain, Membrane. Particulars: Not Active = under 50% inhibition at 10 µM.
The target in assay [3] is T1, Neuropeptide Y receptor type 2 (Homo sapiens, UniProt P49146). Note: in other assays of this panel Not Active means under 50% inhibition at 10 µM.
T1 sequence (P49146 whole entry): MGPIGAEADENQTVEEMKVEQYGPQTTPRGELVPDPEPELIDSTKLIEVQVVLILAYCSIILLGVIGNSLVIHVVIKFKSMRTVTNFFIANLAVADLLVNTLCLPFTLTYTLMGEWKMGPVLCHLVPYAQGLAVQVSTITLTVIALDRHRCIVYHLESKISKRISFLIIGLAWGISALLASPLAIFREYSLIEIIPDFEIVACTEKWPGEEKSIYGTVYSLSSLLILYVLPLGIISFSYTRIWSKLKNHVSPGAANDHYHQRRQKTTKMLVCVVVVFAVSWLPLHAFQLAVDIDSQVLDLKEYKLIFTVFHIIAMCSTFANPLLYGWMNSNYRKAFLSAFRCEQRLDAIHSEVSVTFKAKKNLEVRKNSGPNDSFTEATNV
It is filed as cell membranes, Membrane. The following applies: kan-ts.

Assay [4] deals with T2, Progesterone receptor (Bos taurus, UniProt Q690N0).
T2 sequence (Q690N0 whole entry): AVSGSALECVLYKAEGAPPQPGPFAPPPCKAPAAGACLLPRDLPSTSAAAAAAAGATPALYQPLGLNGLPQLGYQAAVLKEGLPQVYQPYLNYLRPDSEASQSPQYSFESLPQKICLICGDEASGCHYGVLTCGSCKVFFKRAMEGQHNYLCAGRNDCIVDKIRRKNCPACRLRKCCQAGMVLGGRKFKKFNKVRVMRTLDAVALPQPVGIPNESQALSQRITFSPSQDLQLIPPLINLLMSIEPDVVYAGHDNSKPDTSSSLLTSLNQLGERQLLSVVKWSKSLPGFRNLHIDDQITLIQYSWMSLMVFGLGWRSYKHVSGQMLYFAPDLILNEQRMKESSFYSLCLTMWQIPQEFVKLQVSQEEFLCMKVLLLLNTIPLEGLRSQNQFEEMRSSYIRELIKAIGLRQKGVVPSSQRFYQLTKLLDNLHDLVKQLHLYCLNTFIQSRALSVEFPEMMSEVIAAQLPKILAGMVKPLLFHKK
Description: DRUGMATRIX: Progesterone radioligand binding (ligand: [3H] R-5020). It is filed as tissue-based, Uterus. The following applies: Not Active = under 50% inhibition at 10 µM.

The target of assay [5] is Protein kinase C alpha type (Homo sapiens, UniProt P17252). It counts as cell-based. The following applies: sf9.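 Note: inhibition of PKCalpha kinase activity measured in an enzyme assay with histone as the phosphorylation substrate; in other assays of this panel Not Active means under 50% inhibition at 10 µM.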
A short description of assay [6]: DRUGMATRIX: Purinergic P2X radioligand binding (ligand: [3H] alpha, beta-Methylene-ATP). It counts as cell membranes, Oryctolagus cuniculus, New Zealand albino, Urinary bladder, Membrane. Particulars: Not Active = under 50% inhibition at 10 µM.
Assay [7] addresses Estrogen receptor beta (Homo sapiens, UniProt Q92731). The following applies: sf9.

Sequence of Estrogen receptor beta (Q92731 whole entry): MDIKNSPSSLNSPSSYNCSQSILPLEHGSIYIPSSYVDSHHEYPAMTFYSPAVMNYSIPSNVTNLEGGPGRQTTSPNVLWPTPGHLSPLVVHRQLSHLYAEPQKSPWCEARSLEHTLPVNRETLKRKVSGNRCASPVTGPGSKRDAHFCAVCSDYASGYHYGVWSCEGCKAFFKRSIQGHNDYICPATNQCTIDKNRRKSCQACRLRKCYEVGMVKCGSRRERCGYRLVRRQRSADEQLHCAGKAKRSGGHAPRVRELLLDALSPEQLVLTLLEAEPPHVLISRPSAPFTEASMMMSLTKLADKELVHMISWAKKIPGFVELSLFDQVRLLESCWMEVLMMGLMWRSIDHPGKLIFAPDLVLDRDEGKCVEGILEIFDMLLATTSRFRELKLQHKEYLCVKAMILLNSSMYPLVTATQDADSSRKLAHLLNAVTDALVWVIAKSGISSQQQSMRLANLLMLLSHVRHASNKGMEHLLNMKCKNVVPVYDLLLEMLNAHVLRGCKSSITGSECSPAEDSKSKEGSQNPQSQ
Sequence of 5-hydroxytryptamine receptor 2B (P41595 whole entry): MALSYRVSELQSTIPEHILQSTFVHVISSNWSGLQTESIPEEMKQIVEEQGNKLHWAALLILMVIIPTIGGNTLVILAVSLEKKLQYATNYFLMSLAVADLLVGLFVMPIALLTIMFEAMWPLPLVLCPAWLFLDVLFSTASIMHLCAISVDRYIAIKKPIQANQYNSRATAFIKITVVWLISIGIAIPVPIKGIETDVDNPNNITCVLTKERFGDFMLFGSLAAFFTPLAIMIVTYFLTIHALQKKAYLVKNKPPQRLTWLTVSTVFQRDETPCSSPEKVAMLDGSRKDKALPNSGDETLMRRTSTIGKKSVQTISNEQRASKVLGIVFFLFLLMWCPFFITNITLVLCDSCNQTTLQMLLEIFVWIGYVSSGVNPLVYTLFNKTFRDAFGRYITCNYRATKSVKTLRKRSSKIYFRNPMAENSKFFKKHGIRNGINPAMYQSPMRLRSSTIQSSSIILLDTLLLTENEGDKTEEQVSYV

For `C[C@H]1[C@H](NC(=O)/C(=N\OC(C)(C)C(=O)O)c2csc(N)n2)C(=O)N1S(=O)(=O)O` [AZTREONAM], the IC50 result in assay [1] (cho-k1), in assay [2], in assay [3], in assay [4], in assay [5] and in assay [6] was “Not Active” in each case. Further, in assay [7], the IC50 entry was “Not Active”. Also, the Ki entry in assay [2] and in assay [6] was “Not Active” throughout.
Consider `O=C(O)CCNC(=O)c1ccc(/N=N/c2ccc(O)c(C(=O)O)c2)cc1` [BALSALAZIDE], for which the IC50 result in assay [1] (cho-k1), in assay [2], in assay [3], in assay [4], in assay [5] and in assay [6] was “Not Active” in each case. Moreover, the IC50 result in assay [7] was “Not Active”. Further, the Ki entry in assay [2] and in assay [6] was “Not Active” in each case.
As for `ClC(Cl)(Cl)Cl` [CARBON TETRACHLORIDE], the IC50 result in assay [1] (cho-k1), in assay [2], in assay [3], in assay [4], in assay [5] and in assay [6] was “Not Active” each time. For the same compound, in assay [7], the IC50 entry is reported as “Not Active”. Moreover, the Ki entry in assay [2] and in assay [6] was “Not Active” each time.
On to `CO/N=C(\C(=O)N[C@@H]1C(=O)N2C(C(=O)O)=C(COC(C)=O)CS[C@H]12)c1csc(N)n1` [CEFOTAXIME], for which the IC50 entry in assay [1] (cho-k1), in assay [2], in assay [3], in assay [4], in assay [5] and in assay [6] was “Not Active” throughout. Also, the IC50 entry in assay [7] is recorded as “Not Active”. For the same compound, the Ki result in assay [2] and in assay [6] was “Not Active” in each case.
For `CNC1=Nc2ccc(Cl)cc2C(c2ccccc2)=[N+]([O-])C1` [CHLORDIAZEPOXIDE], the half-inhibitory concentration (IC50) entry in assay [1] (cho-k1), in assay [2], in assay [3], in assay [4], in assay [5] and in assay [6] was “Not Active” each time. The 50% inhibitory concentration (IC50) entry in assay [7] was “Not Active”. Besides, the inhibition constant Ki result in assay [2] and in assay [6] was “Not Active” throughout.
As for `Cc1cc(O)cc(C)c1Cl` [CHLOROXYLENOL], the IC50 in assay [1] (read-out: IC50) is 1860 nM; in assay [2], “Not Active”; in assay [3], “Not Active”; in assay [4] it was “Not Active”; in assay [5], “Not Active”; in assay [6], “Not Active”. The IC50 result in assay [7] is recorded as “Not Active”. For the same compound, the Ki was 1180 nM in assay [1], “Not Active” in assay [2] and “Not Active” in assay [6].
Consider `CCCNC(=O)NS(=O)(=O)c1ccc(Cl)cc1` [CHLORPROPAMIDE], for which the IC50 result in assay [1] (cho-k1), in assay [2], in assay [3], in assay [4], in assay [5] and in assay [6] was “Not Active” throughout. In addition, in assay [7], the IC50 entry is “Not Active”. In addition, the Ki result in assay [2] and in assay [6] was “Not Active” in each case.
On to `NS(=O)(=O)c1cc(C2(O)NC(=O)c3ccccc32)ccc1Cl` (configuration not stated) [CHLORTHALIDONE], for which the IC50 entry in assay [1] (cho-k1), in assay [2], in assay [3], in assay [4], in assay [5] and in assay [6] was “Not Active” each time. The IC50 result in assay [7] was “Not Active”. Besides, the Ki result in assay [2] and in assay [6] was “Not Active” each time.
In the case of `O=C(O)CC(O)(CC(=O)O)C(=O)O` [CITRIC ACID], the IC50 result in assay [1] (cho-k1), in assay [2], in assay [3], in assay [4], in assay [5] and in assay [6] was “Not Active” each time. Further, the IC50 result in assay [7] was “Not Active”. For the same compound, the Ki entry in assay [2] and in assay [6] was “Not Active” each time.
On to `CN1CCN(C(c2ccccc2)c2ccccc2)CC1` [CYCLIZINE], for which the IC50 in assay [1] (read-out: IC50) is 373 nM; in assay [2] (read-out: IC50), 4.64 µM; in assay [3] it was “Not Active”; in assay [4] it was “Not Active”; in assay [5] it was “Not Active”; in assay [6] it was “Not Active”. For the same compound, the IC50 result in assay [7] is listed as “Not Active”. Moreover, the figures for the Ki in assay [1], in assay [2] (read-out: Ki) and in assay [6] were 238 nM, 4.51 µM and “Not Active”, respectively.
Regarding `CN1C[C@@H]2C[C@H]1CN2c1cc2c(cc1F)c(=O)c(C(=O)O)cn2C1CC1` [DANOFLOXACIN], the IC50 entry in assay [1] (cho-k1), in assay [2], in assay [3], in assay [4], in assay [5] and in assay [6] was “Not Active” in each case. Besides, in assay [7], the IC50 result is “Not Active”. The Ki entry in assay [2] and in assay [6] was “Not Active” in each case.
In the case of `COc1cccc2c1C(=O)c1c(O)c3c(c(O)c1C2=O)C[C@@](O)(C(C)=O)C[C@@H]3O[C@H]1C[C@H](N)[C@H](O)[C@H](C)O1` [DAUNORUBICIN], the IC50 result in assay [1] (cho-k1), in assay [2], in assay [3], in assay [4], in assay [5] and in assay [6] was “Not Active” each time. Further, in assay [7], the IC50 entry was “Not Active”. Also, the Ki result in assay [2] and in assay [6] was “Not Active” throughout.
Regarding `O=C(O)c1cc(-c2ccc(F)cc2F)ccc1O` [DIFLUNISAL], the half-maximal inhibitory concentration (IC50) result in assay [1] (cho-k1), in assay [2], in assay [3], in assay [4], in assay [5] and in assay [6] was “Not Active” in each case. In addition, in assay [7], the IC50 result is “Not Active”. In addition, the Ki entry in assay [2] and in assay [6] was “Not Active” throughout.
Consider `CC1=NN(c2ccccc2)C(=O)C1` [EDARAVONE], for which the IC50 result in assay [1] (cho-k1), in assay [2], in assay [3], in assay [4], in assay [5] and in assay [6] was “Not Active” in each case. In assay [7], the 50% inhibitory concentration (IC50) result was “Not Active”. Further, the Ki entry in assay [2] and in assay [6] was “Not Active” each time.
With `CC(C)C[C@H]1C(=O)N2CCC[C@H]2[C@]2(O)O[C@](NC(=O)[C@@H]3C=C4c5cccc6[nH]cc(c56)C[C@H]4N(C)C3)(C(C)C)C(=O)N12` [ERGOCRYPTINE], the IC50 was 13 nM in assay [1] (read-out: IC50); “Not Active” in assay [2]; “Not Active” in assay [3]; “Not Active” in assay [4]; “Not Active” in assay [5]; “Not Active” in assay [6]. Moreover, the IC50 result in assay [7] is “Not Active”. Besides, the figures for the Ki in assay [1], in assay [2] and in assay [6] were 8.22 nM, “Not Active” and “Not Active”, respectively.
With `C[C@]12CC[C@@H]3c4ccc(O)cc4CC[C@H]3[C@@H]1C[C@@H](O)[C@@H]2O` [ESTRIOL], the IC50 entry in assay [1] (cho-k1), in assay [2], in assay [3], in assay [4], in assay [5] and in assay [6] was “Not Active” each time. In addition, the IC50 result in assay [7] is given as “Not Active”. For the same compound, the Ki entry in assay [2] and in assay [6] was “Not Active” throughout.
